Earlier results, collected in US6346530B1, “Process for the preparation of a bioavailable oral dosage form of cefuroxime axetil” (Ranbaxy Laboratories Limited, priority 1999, dated 2002).

Details: background, result in words

Row | SMILES | Bioavailability upon oral administration
1 | CO/N=C(\C(=O)N[C@@H]1C(=O)N2C(C(=O)OC(C)OC(C)=O)=C(COC(N)=O)CS[C@H]12)c1ccco1 (some centres unmarked) [Crystalline cefuroxime axetil, cefuroxime axetil] | does not exhibit adequate bioavailability
2 | CO/N=C(\C(=O)N[C@@H]1C(=O)N2C(C(=O)OC(C)OC(C)=O)=C(COC(N)=O)CS[C@H]12)c1ccco1 (some centres unmarked) [amorphous form of cefuroxime axetil, cefuroxime axetil] | high bioavailability
